In brackets after ≈: the same amount, converted by molar mass. Like-named read-outs stand apart in the source and are kept apart here.
How the values were obtained:
M. tuberculosis H37Rv [1] = assay: Extracellular MIC, broth dilution with resazurin; assay type: cell-based; details: Mycobacterium tuberculosis, read-out: Mtb MIC
Method: MICs against the H37Rv strain were determined by broth dilution assay in Middlebrook 7H9 medium supplemented with 10% ADC. After incubating at 37°C for 6 days, 25-µL resazurin solution (one tablet in 30-mL sterile PBS) was added to each well. Following incubation at 37°C for two additional days, the lowest concentration of drug that inhibited 90% of resazurin conversion compared to internal DMSO control wells with no drug added was used to define MIC values.

HepG2 cells [2] = assay: Cell health assay (three-parameter imaging); assay type: cell-based, human
Method: This is a three-parameter automated imaging cell-based assay to measure the cytotoxic effect of compounds in human liver-derived HepG2 cells. Using fluorescent staining, we measured the following key parameters in this assay: nuclear size, mitochondrial membrane potential and plasma membrane permeability. HepG2 cells (ATCC HB-8065) were incubated with the test compounds in 384-well plates. After 48 h, the staining cocktail was added. Hoechst 33342 was used to stain nuclei and quantify changes in nuclear morphology. Tetramethylrhodamine, methyl ester is a cationic dye that accumulates in healthy mitochondria that maintain a mitochondrial membrane potential and leaks out of mitochondria when the mitochondrial membrane potential is dissipated. TOTO-3 iodide labels nuclei of permeabilized cells and is used to measure plasma membrane permeability. Following 45 min of incubation with these stains, the plates were sealed using a black seal for reading on an INCell Analyzer 2000 (GE Healthcare). Each parameter measurement produces the percentages of cells which are “live” or “dead.” The IC50 is defined as the compound concentration that inhibits 50% of cell growth.

HepG2 cells [3] = assay type: cell-based; details: human, 48 h
Method: HepG2 cells were cultured using Eagle’s minimum essential media (EMEM) supplemented with 10% heat-inactivated FBS, 1% non-essential amino acid (NEAA), and 1% penicillin/streptomycin. Prior to addition of the cell suspension, 250 nL of test compounds per well was pre-dispensed in tissue culture-treated black clear-bottomed 384-well plates (Greiner, cat. no. 781091) with an Echo 555 instrument. After that, 25 µL of HepG2 (cat. no. ATCC HB-8065) cells (∼3,000 cells/well) grown to confluency in EMEM supplemented with 10% heat-inactivated FBS, 1% NEAA, and 1% penicillin/streptomycin were added to each well with the reagent dispenser. Plates were allowed to incubate at 37°C with 20% O2 and 5% CO2 for 48 hrs. After incubation, the plates were equilibrated to room temperature before ATP levels were measured with the CellTiter Glo kit (Promega) as the cell viability read-out. 25 µL of CellTiter Glo substrate dissolved in the buffer was added to each well. Plates were incubated at room temperature for 10 min for stabilization of luminescence signal and read on a View Lux luminometer with excitation and emission filters of 613 and 655 nm, respectively. The Tox50 value corresponds to the concentration of the compound necessary to inhibit 50% of cell growth.

recombinant InhA = recombinant InhA (Mycobacterium tuberculosis, UniProt P9WGR1); assay: Inhibition of recombinant InhA; assay type: biochemical, M. tuberculosis
Chain of recombinant InhA (P9WGR1 whole entry, looked up): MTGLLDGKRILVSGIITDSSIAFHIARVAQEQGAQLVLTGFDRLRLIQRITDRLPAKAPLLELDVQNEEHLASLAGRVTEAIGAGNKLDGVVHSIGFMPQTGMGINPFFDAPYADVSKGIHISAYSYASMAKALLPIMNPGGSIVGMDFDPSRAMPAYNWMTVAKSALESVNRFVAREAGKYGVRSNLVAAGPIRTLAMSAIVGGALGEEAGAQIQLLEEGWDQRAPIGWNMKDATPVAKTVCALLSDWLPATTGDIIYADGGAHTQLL
Method: GSK138 inhibited recombinant InhA with an IC50 of 0.04 µM. The minimum inhibitory concentration (MIC) was 1 µM against M. tuberculosis H37Rv, and GSK138 retained its activity against intracellular bacteria growing inside THP-1-derived macrophages in vitro (MIC 0.9 µM).

M. tuberculosis H37Rv [4] = assay type: in vivo, BALB/c mice
[5] = assay type: in vitro ADME
Method: To assess the susceptibility of GSK138 to P450-mediated phase I metabolism, metabolic stability was determined during incubation in CD1 mouse, Sprague Dawley rat, beagle dog, and human liver microsomes.
Human and animal microsomes and compounds were pre-incubated at 37°C prior to addition of NADPH to final protein concentration of 0.5 mg/mL and a final compound concentration of 0.5 µM. Quantitative analysis was performed using specific liquid chromatography-tandem mass spectrometry (LC-MS/MS) conditions. The half-life, elimination rate constant, and intrinsic clearance (mL/min/g tissue) were determined. The well-stirred model was used to translate to in vivo CI values (mL/min/kg).

in vivo = assay: in vivo; design: species or system C57BL/6 mice; details: iv, 1 mg/kg
Method: To determine the pharmacokinetic parameters, GSK138 was administered intravenously [formulation: 5% dimethyl sulfoxide (DMSO)/20% Encapsin in saline solution] as a single bolus dose in C57BL/6 mice at a target dose of 1 mg/kg. All pharmacokinetic parameters were determined in whole blood (Table 1). A moderate clearance and a moderate volume of distribution were observed.
Single-dose pharmacokinetics experiments were performed in female C57BL/6 mice, 21–29 g, obtained from Charles River Laboratories (Wilmington, MA, USA) and housed in cages in groups of three animals with water and food ad libitum. Animals were maintained for 1 week before the experiment.
The compound was dissolved in 20% Encapsin (Sigma-Aldrich), 5% DMSO (Sigma-Aldrich) in saline solution (Sigma-Aldrich) for intravenous administration, and in 1% methylcellulose (Sigma-Aldrich) in water for oral administration.
For PK analysis, 25 µL of tail blood was collected by microsampling at 0.08, 0.25, 0.5, 1.0, 2.0, 4.0, 6.0, 8.0, and 24.0 h for intravenous pharmacokinetics and 0.25, 0.5, 1.0, 2.0, 4.0, 6.0, 8.0, and 24.0 h for oral pharmacokinetics.

[6] = system: H37Rv-Luc inside THP-1-derived macrophages; assay: Intracellular MIC in THP-1-derived macrophages, luciferase read-out; assay type: cell-based, M. tuberculosis; details: Mycobacterium tuberculosis, mean ± SD, read-out: Mtb intracell MIC
[7] = system: drug-susceptible, MDR and XDR M.tb clinical isolates; assay: microbe, parasite or virus in culture; assay type: cell-based, M. tuberculosis; details: Mycobacterium tuberculosis
[8] = Method: The Ames assay was carried out as previously described ([34]) using all strains.

Cc1csc([C@](C)(O)c2nnc(Nc3cc(C)n(Cc4csc(C)n4)n3)s2)n1 [GSK138]
MIC (M. tuberculosis H37Rv [1]): 1 µM (≈ 0.434 µg/mL)
Cell health IC50 (nuclear size, mitochondrial membrane potential, and plasma membrane permeability) (HepG2 cells [2]; HepG2, 48 h): >199500 nM
effect in the cell health assay (HepG2 cells [2]; membrane, nuclear and mitochondrial damages): no effect up to the highest concentration tested (200 µM)
chromatographic logD (physchem; pH 7.4, Chrom logD): 3.39
chromatographic logD (physchem; pH 7.4, chrom logD): 3.38
HepG2 cytotoxicity Tox50 (HepG2 cells [3]): >100 µM
IC50 (recombinant InhA): 40 nM
effect of addition to PaL, R + GSK656, or RZ + GSK656 (M. tuberculosis H37Rv [4]; experiment 3, GSK138 200 mg/kg): did not significantly increase the activity
effect of addition to BPaL, BPa or BPa + GSK656 (M. tuberculosis H37Rv [4]; experiment 3, GSK138 200 mg/kg, 4 weeks (P < 0.01) and 8 weeks (P < 0.0001)): significantly increased the activity
effect of addition to BPa (M. tuberculosis H37Rv [4]; experiment 4, 8 weeks of treatment): additive effects
effect of addition to BPaL on bactericidal activity (M. tuberculosis H37Rv [4]; experiment 5, 4 weeks of treatment): significantly increased the bactericidal activity
in vitro clearance in liver microsomes ([5]; dog): moderate
in vitro clearance in liver microsomes ([5]; human): low
In vitro Clint dog ([5]; microsomes): 1.7 mL/min/g tissue
In vitro Clint human ([5]; microsomes): 0.3 mL/min/g tissue
In vitro Clint mouse ([5]; microsomes): 4.4 mL/min/g tissue
In vitro Clint rat ([5]; microsomes): 3.5 mL/min/g tissue
in vitro clearance in liver microsomes ([5]; mouse): moderate
in vitro clearance in liver microsomes ([5]; rat): moderate
Vd (in vivo; female, C57BL/6, mouse): 2.6 ± 0.3 L/kg
clearance (in vivo; female, C57BL/6, mouse): 77.6 ± 16.8 mL/min/kg
clearance (in vivo; mouse): moderate
volume of distribution (in vivo; mouse): moderate
MIC [6]: 0.9 µM (≈ 0.39 µg/mL)
MIC90 [7]: 3.75 µM (≈ 1.63 µg/mL)
Ames test [8]: Negative

From PMC11539229 (Antimicrobial Agents and Chemotherapy, 2024)
